Assay results as given in patent publication US20260001889A1, “COMPOSITIONS USEFUL FOR MODULATING SPLICING” (Skyhawk Therapeutics, Inc., priority 2022, published 2026).
pEC50, pIC50: −log10 of the molar value.

How the values were obtained:
[1] = tested on: ATXN3 transcripts containing exon 4; test: ATXN3 Quantitative Splicing Assay (qPCR, E4E5 primers/probe); type: cell-based; settings: Homo sapiens, SK-N-MC cells, compounds for 24 h
Experimental: Example 34: ATXN3 Quantitative Splicing Assay
Human neuroblastoma SK-N-MC cells were plated in 384-well plates at 20,000 cells/well. Twenty-four hours after plating, cells were treated with compounds for 24 h at appropriate concentrations ranging from 30 μM to 0.6 nM (0.300 DMSO). Treated cells were lysed in 15 μL of lysis buffer, and cDNA was synthesized using the Fast Advanced Cells-to-Ct kit. Two […] of each cDNA was used in qPCR reactions to confirm the exon 4 skipped transcripts of ATXN3. A second set of primers/probe E4E5 was used to detect the transcripts containing exon 4. The third set of primers/probe E8E9 was used to detect total gene level of ATXN3. The qPCR reactions were prepared in 384-well plates in 10 μL volume, using TaqMan™ Fast Advanced Master Mix with primers and probes shown in the table below. Reactions were run in a Quant Studio 6 qPCR instrument with default settings.
The primers and probes are listed below in Table 4.

[2] = tested on: total ATXN3 protein; test: ATXN3 Total Protein Assay (Mesoscale Discovery, SK-N-MC cells); type: cell-based, Human; settings: incubation for 48 hours, MSD assay
Experimental: Example 35: ATXN3 Total Protein Assay
Human neuroblastoma SK-N-MC cells were seeded at 10,000 cells/well in 384 well plates one day prior to compound treatment. The concentrations of compounds were tested at appropriate doses ranging from 30 μM to 0.6 nM. After incubation for 48 hours, the cells were lysed with 25 μL of lysis buffer containing protease inhibitors, and total ATXN3 protein levels were assessed by Mesoscale Discovery (MSD) assay developed with one pair of anti-ATXN3 antibodies. The capture and detect antibodies were raised in mouse and rabbit respectively. Anti-rabbit MSD-ST antibody was used for secondary antibody.
ATXN3 recombinant protein was used for standards. The readouts were captured with 35 μL of MSD read buffer and multi-array 384-well high binding plates.

[3] = tested on: ATXN3-HiBiT protein; test: ATXN3 Total Protein Assay (Kelly-ATXN3-HiBiT luminescence); type: cell-based; settings: Kelly-ATXN3-HiBiT cells, 48 h after addition of compound
Summary of the method: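 Kelly cells with homozygous C-terminal HiBiT knock-in on endogenous ATXN3, 2000 per well, dosed 24 h after seeding. HiBiT lytic luminescence read 48 h after compound; sister plate read with CellTiter-Glo for viability; fold change vs DMSO.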

Compound | pIC50 [1] | pIC50 [2] | pEC50 [3]
Cc1c(C[C@H](C)N)oc2c(NCc3ccncc3)cc(Cl)nc12 (single isomer, unassigned) [Compound 3] | 5.30 to 6.30 | 5.30 to 6.30 | 
Cc1c(C[C@@H](C)N)oc2c(NCc3ccncc3)cc(Cl)nc12 (single isomer, unassigned) [Compound 4] | 5.00 to 5.30 | 5.30 to 6.30 | 
CC(N)Cc1cc2nc(Cl)cc(NCc3ccncc3)c2o1 (stereo not drawn) [Compound 1, 2-(2-aminopropyl)-5-chloro-7-{[(4-pyridyl)methyl]amino}-1-oxa-4-azaindene] | 4.40 to 5.00 | 4.40 to 5.00 | 
CC(N)Cc1cc2nc(Cl)cc(NCc3ccccc3)c2o1 (stereo not drawn) [Compound 2, 2-(2-aminopropyl)-7-benzylamino-5-chloro-1-oxa-4-azaindene] | 5.00 to 5.30 | 5.00 to 5.30 | 
Cc1coc2c(NCc3ccncc3)cc(Cl)nc12 [Compound 5, [(4-pyridyl)methyl](5-chloro-3-methyl-1-oxa-4-aza-7-indenyl)amine] | 4.40 to 5.00 | 4.40 to 5.00 | 
Clc1cc(NCc2ccncc2)c2occc2n1 [Compound 6, 5-chloro-N-(pyridin-4-ylmethyl)furo[3,2-b]pyridin-7-amine] | 4.40 to 5.00 | 4.40 to 5.00 | 
Cc1c(CC(C)N)oc2c(NCc3ccncc3)cc(Cl)nc12 (stereo not drawn) [Compound 7, 2-(2-aminopropyl)-5-chloro-3-methyl-7-{[(4-pyridyl)methyl]amino}-1-oxa-4-azaindene] | 5.30 to 6.30 | 5.30 to 6.30 | 
Cc1c(C[C@H](C)N)oc2c(NCc3ccccc3)cc(Cl)nc12 [Compound 8, 2-[(S)-2-aminopropyl]-7-benzylamino-5-chloro-3-methyl-1-oxa-4-azaindene] | 5.30 to 6.30 | 5.30 to 6.30 | 
Cc1c(C[C@H](C)N)oc2c(NCc3nccs3)cc(Cl)nc12 [Compound 9, 2-[(S)-2-aminopropyl]-5-chloro-3-methyl-7-{[(1,3-thiazol-2-yl)methyl]amino}-1-oxa-4-azaindene] | 5.30 to 6.30 | 5.30 to 6.30 | 
Cc1c(C[C@H](C)N)oc2c(NCc3ccco3)cc(Cl)nc12 [Compound 10, 2-[(S)-2-aminopropyl]-5-chloro-7-(furfurylamino)-3-methyl-1-oxa-4-azaindene] | 5.30 to 6.30 | 5.30 to 6.30 | 
Cc1c(C[C@H](C)N)oc2c(NCc3ccc(F)s3)cc(Cl)nc12 [Compound 12, 2-[(S)-2-aminopropyl]-5-chloro-7-{[(5-fluoro-2-thienyl)methyl]amino}-3-methyl-1-oxa-4-azaindene] | 5.30 to 6.30 | 5.30 to 6.30 | 
C[C@H](N)C(F)(F)c1oc2c(NCc3cccs3)cc(Cl)nc2c1Br [Compound 187, 2-[(S)-2-amino-1,1-difluoropropyl]-3-bromo-5-chloro-7-thenylamino-1-oxa-4-azaindene] | 7.00 to 11.00 |  | 7.00 to 11.00
C#Cc1c(C[C@@H](N)CCOC(F)F)oc2c(NCc3cccs3)cc(Cl)nc12 [Compound 197, 2-[(S)-2-amino-4-difluoromethoxybutyl]-5-chloro-3-ethynyl-7-thenylamino-1-oxa-4-azaindene] | 7.00 to 11.00 |  | 7.00 to 11.00
C[C@H](N)Cc1oc2c(NCc3ccc(F)cc3F)cc(Cl)nc2c1Br [Compound 350, 2-[(S)-2-aminopropyl]-3-bromo-5-chloro-7-{[(2,4-difluorophenyl)methyl]amino}-1-oxa-4-azaindene] | 5.30 to 6.30 |  | 5.30 to 6.30
C[C@H](N)Cc1oc2c(NCc3ccc(Cl)s3)cc(Cl)nc2c1Br [Compound 353, 2-[(S)-2-aminopropyl]-3-bromo-5-chloro-7-{[(5-chloro-2-thienyl)methyl]amino}-1-oxa-4-azaindene] | 5.30 to 6.30 |  | 5.30 to 6.30
OCc1oc2c(NCc3cccs3)cc(Cl)nc2c1Br [Compound 354, (3-bromo-5-chloro-7-thenylamino-1-oxa-4-aza-2-indenyl)methanol] | 5.00 to 5.30 |  | 5.00 to 5.30
Cc1c(C[C@H](C)N)oc2c(NCc3cccs3)cc(F)nc12 [Compound 404, 2-[(S)-2-aminopropyl]-5-fluoro-3-methyl-7-thenylamino-1-oxa-4-azaindene] | 6.30 to 7.00 |  | 
